PubChem BioAssay AID504539 (Broad Institute, 2011)

Each compound was assayed on Cell-based prion protein 5' UTR reporter, plate reader (assay: prion protein 5' UTR mRNA inhibitors – cell-based, plate reader, cherry-picked samples, dose response (AID 504539)).
`O=C(CN1C(=O)c2ccccc2S1(=O)=O)c1ccc2c(c1)OCCO2` was tested, and the AC50 was 0.114 µM. Work on `COc1ccc(OC)c(N/C=C/C(=O)c2ccccc2)c1` yielded an AC50 of 0.558 µM. `COc1ccc(C(=O)/C=C/Nc2ccccn2)cc1` was tested, and the AC50 was 0.369 µM. `CCOc1ccc(NC(=O)c2ccccn2)cc1` was tested, and the AC50 was 0.345 µM. `CC1CCCN(c2ncnc3c2cnn3-c2ccc(Cl)cc2)C1` (stereo not given) gave an AC50 of under 0.038 µM. For `CCc1ccn2cc(-c3cc(-c4ccccc4)no3)nc2c1`, the AC50 was 0.558 µM. For `Nc1ncnc2c1ccn2[C@@H]1O[C@H](CO)[C@@H](O)[C@H]1O`, the AC50 was 0.164 µM. For `C[C@H]1CCC/C=C/[C@@H]2C[C@H](O)C[C@H]2[C@@H](O)/C=C/C(=O)O1`, the AC50 was under 0.038 µM. Compound `COc1cc2c(c(OC)c1OC)-c1ccc(O)c(=O)cc1C(NC(C)=O)CC2` (stereo not given) has an AC50 of 0.16 µM. Work on `CC(=O)OCC12CC(OC(=O)CC(C)C)C(C)=CC1OC1C(O)C(OC(C)=O)C2(C)C12CO2` (stereo not given) yielded an AC50 of under 0.038 µM. `Cc1ccc(-c2cc(C(=O)N/N=C/c3c(C)nn(-c4ccccc4)c3C)[nH]n2)cc1` was tested, and the AC50 was 3 µM. For `C[C@@H]1O[C@@H](O[C@@H]2C=C3CC[C@@H]4C(CC[C@]5(C)[C@@H](c6ccc(=O)oc6)CC[C@]45O)[C@@]3(C)CC2)[C@H](O)[C@H](O)[C@H]1O` (stereo not given in full), the AC50 was under 0.038 µM. `Cc1cc(C(=O)COC(=O)c2ccccc2Br)c(C)n1CC1CCCO1` (stereo not given) showed an AC50 of 0.09 µM. Work on `CC1=C(N2CC2)C(=O)C(CO)=C(N2CC2)C1=O` yielded an AC50 of 0.154 µM. Compound `CCn1c(C)nc2cc(-c3nc4n(n3)Cc3ccccc3-4)ccc21` has an AC50 of 0.044 µM. In the case of `COc1ccc(-c2nc(-c3ccccn3)no2)cc1`, the AC50 is reported as 0.209 µM. `COCCn1c(C)cc(C(=O)CSc2nnc(C)s2)c1C` was tested, and the AC50 was 0.696 µM. Compound `Cc1c(C(=O)OCC(C)C)[nH]c2c1C(=O)CC(c1ccco1)C2` (stereo not given) has an AC50 of 1.26 µM. `CCC1CN2CCc3cc(OC)c(OC)cc3C2CC1CC1NCCc2c1[nH]c1ccc(O)cc21` (stereo not given) gave an AC50 of 0.216 µM. For `C[C@H]1CCC/C=C/[C@@H]2C[C@H](O)C[C@H]2[C@H](O)[C@H](S(=O)c2ccc(O)cc2)CC(=O)O1` (stereo not given in full), the AC50 was 0.182 µM. `O=C1/C(=C\c2ccc([N+](=O)[O-])cc2)CS(=O)(=O)C/C1=C/c1ccc([N+](=O)[O-])cc1` showed an AC50 of 2.06 µM. With `Clc1ccc(-n2ncc3c(N4CCCCCC4)ncnc32)cc1` the AC50 was 0.795 µM. With `COC(=O)Cc1[nH]n(-c2nc3ccccc3s2)c(=O)c1C(C)=Nc1ccc(Cl)cc1` the AC50 was 0.07 µM. `COc1ccc(C(=O)c2cc([N+](=O)[O-])ccc2N2CCOCC2)cc1` was tested, and the AC50 was 0.397 µM. `O=c1c2ccccc2cnn1-c1nc2ccccc2[nH]1` was tested, and the AC50 was 0.185 µM. Work on `Cc1ccc(-c2cn3nc(C)c(C)nc3n2)cc1` yielded an AC50 of 0.485 µM. `COc1ccc(C(=O)NN(C)c2nc(C(F)(F)F)nc3ccccc23)cc1` showed an AC50 of 0.163 µM. `Cc1cccc(/C=N/Nc2ccc3ccccc3n2)c1` gave an AC50 of 0.456 µM. `CC1CC(C)(O)CC(C(O)CC2CC(=O)NC(=O)C2)C1=O` (stereo not given) was tested, and the AC50 was 0.493 µM. `CCCSc1ccc2nc(-c3ccccc3)cn2c1` showed an AC50 of 0.487 µM. `Cc1ccc(N2C(=O)c3cccc4c(N)ccc(c34)C2=O)c2cccnc12` showed an AC50 of 0.134 µM. For `Cc1ccc(C(=O)Nc2cc3ccccc3oc2=O)cc1`, the AC50 was 0.143 µM. `Cc1c(/C=N\NC(=O)C2COc3ccccc3O2)c2ccccc2n1C` (stereo not given) gave an AC50 of 3.04 µM. For `Cc1ccc(-n2[nH]c(=O)c(-c3ccccn3)c2C)cc1`, the AC50 was 0.368 µM. `Cc1cc([N+](=O)[O-])c2ccccc2[n+]1[O-]` was tested, and the AC50 was 0.256 µM. `Cc1cc(/C=N/Nc2ncnc(N)c2[N+](=O)[O-])c(C)n1-c1ccccc1` was tested, and the AC50 was 0.636 µM. For `O=C1C(=C2SCCCS2)CC/C1=C\c1ccc(F)cc1`, the AC50 was 0.292 µM. Work on `COc1cc(C(=O)N2CCN(c3cc(Cl)ccc3Cl)CC2)cc(OC)c1OC` yielded an AC50 of 1.12 µM. `COc1ccccc1C(=O)Nc1nc2ccccc2s1` was tested, and the AC50 was 0.204 µM. `CCOc1ncccc1C(=O)N1CCN(c2cccc(C)c2C)CC1` showed an AC50 of 0.517 µM. With `Cc1ccc(-c2cc3c(nn2)-c2ccccc2C3=O)cc1` the AC50 was 0.575 µM. With `CCC(C)(C)c1ccc(Oc2ccc(N)cc2)cc1` the AC50 was 0.173 µM. `O=C(N/N=C/c1c[nH]c2ccccc12)c1[nH]c2ccc(Br)cc2c1-c1ccccc1` showed an AC50 of 0.774 µM. In the case of `NC(=S)NN=Cc1nccc2ccccc12`, the AC50 is reported as 2.8 µM. `COc1cc(NC(=O)c2cccs2)c(C(=O)OCC(=O)c2cc(C)n(-c3ccccc3)c2C)cc1OC` gave an AC50 of 0.989 µM. With `CCCOc1ccccc1C1CC(=O)Nc2cc3c(cc21)OCCO3` (stereo not given) the AC50 was 2.9 µM. Work on `CC1OC(OC2C=C3CCC4C(CCC5(C)C(c6ccc(=O)oc6)CCC45O)C3(C)CC2)C(O)C(OC2OC(CO)C(O)C(O)C2O)C1O` (stereo not given) yielded an AC50 of under 0.038 µM. `O=C(CN1C(=O)c2ccccc2S1(=O)=O)c1ccc(Cl)cc1Cl` was tested, and the AC50 was 0.181 µM. Compound `CC(C)c1ccc(-c2nc3ccccc3s2)cc1` has an AC50 of under 0.038 µM. `OCCCNc1cc(-c2ccnc(Nc3cccc(Cl)c3)n2)ccn1` gave an AC50 of 0.181 µM. Compound `O=C(Nc1cccc(C(=O)O)c1)Nc1ccc2c(c1)OCO2` has an AC50 of 0.397 µM. `Cc1ccc(C(=O)Nc2ncc(Cc3ccc(SC(F)F)cc3)s2)cc1` showed an AC50 of 1.56 µM. Work on `CCCCCOC(=O)c1[nH]c2c(c1C)C(=O)CC(c1ccco1)C2` (stereo not given) yielded an AC50 of 0.226 µM. `CC(=Nc1ccccc1)C1=C(O)C(Cc2ccc(O)cc2)NC1=O` (stereo not given) showed an AC50 of 0.379 µM. With `CC(=O)OC1C2(CC3N4C(=O)C5(CO)SSC4(CC31O)C(=O)N5C)OC(C)C(C)(C)C2=O` (stereo not given) the AC50 was 0.295 µM. Work on `C[C@@H]1O[C@@H](O[C@@H]2C=C3CCC4C(CC[C@]5(C)[C@@H](c6ccc(=O)oc6)CC[C@]45O)[C@@]3(C)CC2)[C@H](O)[C@H](O)[C@H]1O` (stereo not given in full) yielded an AC50 of under 0.038 µM. In the case of `Cc1c(C(=O)N/N=C/c2ccc(Cl)cc2)[nH]c2ccc(Cl)cc12`, the AC50 is reported as 1.09 µM. `Cn1cccc1/C=C1\SC(=Nc2ccc(O)cc2)NC1=O` was tested, and the AC50 was 0.63 µM. With `CC1=Nc2cc(C(=O)NCc3ccco3)ccc2Sc2ccc(C)cc21` the AC50 was 1.67 µM. Compound `COc1cc(SC)ccc1C(=O)Nc1ccc(Br)cn1` has an AC50 of 0.5 µM. In the case of `CCOC(=O)c1c(C)[nH]c(C(=O)N/N=C/c2ccc(Br)cc2)c1C`, the AC50 is reported as 0.378 µM. Work on `O=C(O)CSCC(=O)Nc1ccc(C2CCCCC2)cc1` yielded an AC50 of 1.56 µM. Work on `Nc1ccc(-c2cc3ccccc3c(=O)o2)cc1` yielded an AC50 of 0.467 µM. In the case of `COc1cc(C2c3cc4c(cc3CC3COC(=O)N32)OCO4)cc(OC)c1OC` (stereo not given), the AC50 is reported as 0.861 µM. `CC(=O)OC1(C)CC(C)C(=O)C(C(O)CC2CC(=O)NC(=O)C2)C1` (stereo not given) gave an AC50 of 0.5 µM. For `Cc1ccc2nc3sc(C(=O)N4CCOCC4)c(N)c3cc2c1`, the AC50 was 0.275 µM. Work on `O=C(NC1=NCCS1)C1COc2ccccc2O1` (stereo not given) yielded an AC50 of 0.296 µM. In the case of `CCC(C)(O)C(=O)OC1C(=O)OC2CC3C(C)=CC(=O)C(O)C3(C)C3C4(O)OCC23C1C(C)C4O` (stereo not given), the AC50 is reported as 0.178 µM. `COc1ccc(OC)c(-c2nnc3n2N=C(c2ccc(OC)c(OC)c2)CS3)c1` showed an AC50 of 0.261 µM. In the case of `CC(C)Oc1ccc(C(=O)Nc2nc3ccccc3[nH]2)cc1`, the AC50 is reported as 0.304 µM. In the case of `Cc1cc(NC(=O)CSc2nc(-c3ccco3)cc(C(F)(F)F)n2)no1`, the AC50 is reported as 0.56 µM. In the case of `C=CCn1c(SCc2c(C)noc2C)nc2ccccc2c1=O`, the AC50 is reported as 0.851 µM. With `Cc1ccc(CCC(=O)Nc2ncc(Cc3cccc(Cl)c3Cl)s2)o1` the AC50 was 0.358 µM. Work on `COc1cc2cc(C(=O)N3CC(COS(C)(=O)=O)c4ccc(O)cc43)[nH]c2c(OC)c1OC` (stereo not given) yielded an AC50 of under 0.038 µM. `CN(NC(=O)c1ccccc1F)c1nc(C(F)(F)F)nc2ccccc12` showed an AC50 of 1.32 µM. With `COc1cccc(N2CCN(C(=O)c3ccc(CS(=O)c4ccccc4C)o3)CC2)c1` (stereo not given) the AC50 was 1.39 µM. Work on `CNC(=O)Oc1ccc(-c2cn3cc(C)ccc3n2)cc1` yielded an AC50 of 0.556 µM. `CCOCCOC(=O)c1[nH]c2c(c1C)C(=O)CC(c1cccs1)C2` (stereo not given) showed an AC50 of 1.7 µM. `CC(=O)N(/N=C1\Sc2ccccc2C1=O)c1ccc(C)cc1C` was tested, and the AC50 was 4.72 µM. With `Cc1cnc(NC(=O)c2ccc3c(c2)OCCO3)s1` the AC50 was 0.159 µM.
